In the NIST ThermoML archive (doi:10.1016/j.jct.2013.12.010) one finds binary diffusion coefficient data, which are given here for 2 compounds.

SMILES strings stand for the structures.

The nature of the data set: cn = amount concentration of the nth substance listed, in mol/dm3. The conditions noted are these: 298.15 K, 101 kPa, Liquid, Taylor dispersion method.

Turning to `N[C@@H](Cc1ccc(O)c(O)c1)C(=O)O` [L-3,4-dihydroxyphenylalanine] + O, the binary diffusion coefficient (c1 = 0.005) turned out to be 6.2e-10 m2/s.

Take `Cl` [hydrogen chloride] + O: the binary diffusion coefficient reads like this: (c1 = 0.005) 2.99e-09 m2/s; (c1 = 0.1) 2.9e-09 m2/s.
